From US20230322724A1, “HETEROCYCLIC COMPOUNDS AS CBP/EP300 BROMODOMAIN INHIBITORS” (AURIGENE ONCOLOGY LIMITED, priority 2020, published 2023) come the findings set out here.

Some results are limits rather than exact numbers.

Format in all cases: binding
Experiment [1] has as its target T1, recombinant P300 bromodomain (Homo sapiens, UniProt Q09472).
T1 construct: recombinant P300 bromodomain obtained from BPS Bioscience, USA; purchased BPS Bioscience, USA
T1 sequence (Q09472 1049-1156 limits assumed): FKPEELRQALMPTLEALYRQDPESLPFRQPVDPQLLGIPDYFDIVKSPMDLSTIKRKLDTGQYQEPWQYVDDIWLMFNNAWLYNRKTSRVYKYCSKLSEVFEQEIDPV
Kind of experiment: P300 TR-FRET displacement assay. Particulars: dose-response, read-out: IC50 (group A, B, C). The method, then:
The potency of compounds to inhibit P300 enzyme was tested in a TR-FRET displacement assay using recombinant P300 bromodomain obtained from BPS Bioscience, USA. The assay buffer was 50 mM HEPES (pH 7.5), 50 mM NaCl, 0.008% Brij 35, 0.01% BSA, 1 mM TCEP. 50 nM of P300 & 500 nM of Biotinylated ligand was incubated at room temperature for 30 minutes, the reaction was initiated by adding the pre-incubated enzyme ligand mixture to the test compounds. After 60 min incubation, the reaction was stopped by the addition of stop mix containing 1 nM of LANCE Europium-anti-6xHis antibody (Perkin Elmer, USA) and 40 nM of Sure Light Allophycocyanin-Streptavidin (Perkin Elmer, USA). Fluorescence emission of the samples at 665 and 615 nm were measured at an excitation of 340 nm and their ratio was plotted against the compound concentrations to generate dose-response curve.
Selected compounds of the present invention were screened in the above-mentioned assay procedures and IC50 values were determined by fitting the dose-response data to sigmoidal curve fitting equation using Graph pad prism software V7.
Background: Time-resolved FRET reads energy transfer from a long-lived donor to a nearby acceptor.

Experiment [2] addresses T2, recombinant CREBBP bromodomain (Homo sapiens, UniProt Q92793).
T2 construct: recombinant CREBBP bromodomain obtained from BPS Bioscience, USA; purchased BPS Bioscience, USA
Kind of experiment: CBP TR-FRET displacement assay. The settings on record: for IC50: dose-response, read-out: IC50 (group A, B, C); for inhibition at 10 µM: compound at 10 μM. A digest of the protocol: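 CREBBP bromodomain (50 nM) preincubated 30 min at room temperature with 500 nM biotinylated ligand in HEPES pH 7.5 buffer with TCEP, then 60 min with compound. Eu-anti-His/APC-streptavidin TR-FRET 665/615 nm ratio read; IC50 from sigmoidal dose-response fit.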

In experiment [3] the target is T3, recombinant BRD4 FL bromodomain (Homo sapiens, UniProt O60885).
T3 construct: fused on or other part: 6xHis tag, inferred from detection with Mab ANTI 6HIS-XL665
Kind of experiment: BRD4 FL TR-FRET displacement assay. Particulars: BRD4 FL; for IC50: dose-response, read-out: IC50 (group A, B, C); for inhibition at 10 µM: compound at 10 μM, read-out: % Inhibition (10 μM). A digest of the protocol:
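Recombinant BRD4 FL (10 nM) pre-incubated 30 min at room temperature with 300 nM biotinylated acetyl-histone H4 (K5/8/12/16) in 50 mM HEPES pH 7.5, 50 mM NaCl, 500 μM CHAPS, then added to compounds for 30 min. Stopped with Eu-streptavidin/anti-6His-XL665 in KF; 665/615 nm ratio fitted sigmoidally for IC50.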

T2 sequence (Q92793 1085-1192 limits assumed): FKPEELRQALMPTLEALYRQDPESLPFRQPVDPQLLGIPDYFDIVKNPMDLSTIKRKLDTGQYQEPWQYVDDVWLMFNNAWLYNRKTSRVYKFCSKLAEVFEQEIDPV

For the compound `Cc1cc2c(N3CCCc4cc(-c5cnn(C)c5)c(C(F)F)cc43)nc(N3CCOCC3)cc2n(C)c1=O` [Example 234, 5-(7-(Difluoromethyl)-6-(1-methyl-1H-pyrazol-4-yl)-3,4-dihydroquinolin-1(2H)-yl)-1,3-dimethyl-7-morpholino-1,6-naphthyridin-2(1H)-one], the figures for the IC50 in experiment [1] and in experiment [2] were less than 25 nM and less than 50 nM, respectively.
As to `COc1cc(N2CCN(C)c3cc(-c4cnn(C)c4)c(C#N)cc32)c2cc(C)c(=O)n(C)c2c1` [Example 1, 4-(7-Methoxy-1,3-dimethyl-2-oxo-1,2-dihydroquinolin-5-yl)-1-methyl-7-(1-methyl-1H-pyrazol-4-yl)-1,2,3,4-tetrahydroquinoxaline-6-carbonitrile], in experiment [1], the half-inhibitory concentration (IC50) is less than 25 nM. Further, in experiment [2], the inhibition at 10 µM turned out to be 99% and the IC50 was less than 50 nM.
In the case of `Cc1cc2c(N3CCCc4cc(-c5cnn(C)c5)c(C(F)F)cc43)nc(N3CC4(COC4)C3)cc2n(C)c1=O` [Example 224], the values for the IC50 in experiment [1] and in experiment [2] were greater than 50000 nM and less than 50 nM, respectively.
As to `Cc1cc2c(N3CCN(C)c4cc(-c5cnn(C)c5)ccc43)cc(OCC(=O)O)cc2n(C)c1=O` [Example 72, 2-((1,3-Dimethyl-5-(4-methyl-6-(1-methyl-1H-pyrazol-4-yl)-3,4-dihydroquinoxalin-1(2H)-yl)-2-oxo-1,2-dihydroquinolin-7-yl)oxy)acetic acid], the concentration for half-maximal inhibition (IC50) is less than 25 nM in experiment [1] and less than 50 nM in experiment [2].
In the case of `COc1cc(N2CCN(C)c3cc(N4CCC(O)C4)c(C#N)cc32)c2cc(C)c(=O)n(C)c2c1` (stereo not shown) [Example 20], the IC50 is 25 to 50 nM in experiment [1] and less than 50 nM in experiment [2].
The matching figures for `Cc1cc2c(N3CCCc4cc(-c5cnn(C)c5)c(C(F)F)cc43)nc(N3CC[C@@H](O)C3)cc2n(C)c1=O` [Example 209]: less than 25 nM and less than 50 nM.
Turning to `Cc1cc2c(N3CCN(C)c4cc(-c5cnn(C)c5)c(C#N)cc43)cc(OCC3CCCN(C)C3)cc2n(C)c1=O` (stereo not shown) [Example 35], the IC50 was less than 25 nM in experiment [1] and less than 50 nM in experiment [2]. Also, the inhibition at 10 µM in experiment [2] is 96%.
As for `COc1cc(N2CCN(C)c3cc(N4CCOCC4)c(C#N)cc32)c2cc(C)c(=O)n(C)c2c1` [Example 18], the results for the 50% inhibitory concentration (IC50) in experiment [1] and in experiment [2] were 25 to 50 nM and less than 50 nM, respectively.
The like results for `COc1cc(N2CCN(C)c3cc(-c4cnc(O)nc4)c(C#N)cc32)c2cc(C)c(=O)n(C)c2c1` [Example 16] were, in that order, less than 25 nM and less than 50 nM.
Turning to `Cc1cc2c(N3CCN(C)c4cc(-c5cnn(C)c5)c(C#N)cc43)nccc2[nH]c1=O` [Example 54], the half-inhibitory concentration (IC50) in experiment [1] is greater than 50000 nM. Further, in experiment [2], the inhibition at 10 µM came out at 91% and the IC50 was greater than 10 nM.
For the compound `Cc1cc2c(N3CCCc4cc(-c5cnn(C)c5)c(C(F)F)cc43)nc(C3CCOCC3)cc2n(C)c1=O` [Example 242, 5-(7-(Difluoromethyl)-6-(1-methyl-1H-pyrazol-4-yl)-3,4-dihydroquinolin-1(2H)-yl)-1,3-dimethyl-7-(tetrahydro-2H-pyran-4-yl)-1,6-naphthyridin-2(1H)-one], the IC50 in experiment [1] is less than 25 nM; in experiment [2], less than 50 nM.
The matching figures for `COc1cc(N2CCN(C)c3ccc(-c4cnn(C)c4)cc32)c2cc(C)c(=O)n(C)c2c1` [Example 80]: greater than 50000 nM and greater than 10 nM.
Take `Cc1cc2c(N3CCN(C)c4cc(-c5cnn(C)c5)c(C#N)cc43)cc(OCCN3CCOCC3)cc2n(C)c1=O` [Example 36]: the IC50 in experiment [1] is less than 25 nM; in experiment [2], less than 50 nM. In addition, the inhibition at 10 µM in experiment [2] was 100%.
`COc1cc(N2CCN(C)c3cc(-c4c(C)nn(C)c4C)c(C#N)cc32)c2cc(C)c(=O)n(C)c2c1` [Example 12]: the figures for the IC50 in experiment [1] and in experiment [2] were less than 25 nM and less than 50 nM, respectively.
Turning to `COc1cc(N2CCN(C)c3cc(N4CCN(C(C)=O)CC4)c(C#N)cc32)c2cc(C)c(=O)n(C)c2c1` [Example 23], the IC50 in experiment [1] is less than 25 nM; in experiment [2], less than 50 nM.
In the case of `CNC(=O)c1ccc(-c2cc3c(cc2C#N)N(c2cc(OC)cc4c2cc(C)c(=O)n4C)CCN3C)cn1` [Example 11], the IC50 in experiment [1] is less than 25 nM; in experiment [2] it was less than 50 nM.
For the compound `COc1ccc(CN2CCN(c3cc(OC)cc4c3cc(C)c(=O)n4C)c3cc(C#N)c(-c4cnn(C)c4)cc32)cc1` [Example 8, 4-(7-methoxy-1,3-dimethyl-2-oxo-1,2-dihydroquinolin-5-yl)-1-(4-methoxybenzyl)-7-(1-methyl-1H-pyrazol-4-yl)-1,2,3,4-tetrahydroquinoxaline-6-carbonitrile], the concentration for half-maximal inhibition (IC50) in experiment [1] is greater than 50000 nM; in experiment [2], greater than 10 nM.
On to `Cc1cc2c(N3CCCc4cc(-c5cnn(C)c5)c(C(F)F)cc43)cc(N3CCOCC3)cc2n(C)c1=O` [Example 178], for which the IC50 in experiment [1] is less than 25 nM; in experiment [2], less than 50 nM.
The like results for `COc1cc(N2CCNc3cc(-c4cnn(C)c4)c(C#N)cc32)c2cc(C)c(=O)n(C)c2c1` [Example 62, 4-(7-methoxy-1,3-dimethyl-2-oxo-1,2-dihydroquinolin-5-yl)-7-(1-methyl-1H-pyrazol-4-yl)-1,2,3,4-tetrahydroquinoxaline-6-carbonitrile] were, in that order, 25 to 50 nM and greater than 10 nM.
Consider `COCCOc1cc(N2CCN(C)c3cc(-c4cnn(C)c4)c(C#N)cc32)c2cc(C)c(=O)n(C)c2c1` [Example 37], for which the concentration for half-maximal inhibition (IC50) in experiment [1] was less than 25 nM. In experiment [2], the inhibition at 10 µM worked out at 100% and the 50% inhibitory concentration (IC50) is less than 50 nM.
`CNC(=O)C1CCN(c2cc3c(cc(C)c(=O)n3C)c(N3CCCc4cc(-c5cnn(C)c5)c(C(F)F)cc43)n2)C1` (stereo not shown) [Example 201, 1-(5-(7-(Difluoromethyl)-6-(1-methyl-1H-pyrazol-4-yl)-3,4-dihydroquinolin-1(2H)-yl)-1,3-dimethyl-2-oxo-1,2-dihydro-1,6-naphthyridin-7-yl)-N-methylpyrrolidine-3-carboxamide]: the figures for the concentration for half-maximal inhibition (IC50) in experiment [1] and in experiment [2] were less than 25 nM and less than 50 nM, respectively.
Turning to `CONC(=O)COc1cc(N2CCN(C)c3cc(-c4cnn(C)c4)ccc32)c2cc(C)c(=O)n(C)c2c1` [Example 73, 2-((1,3-Dimethyl-5-(4-methyl-6-(1-methyl-1H-pyrazol-4-yl)-3,4-dihydroquinoxalin-1(2H)-yl)-2-oxo-1,2-dihydroquinolin-7-yl)oxy)-N-methoxyacetamide], the IC50 in experiment [2] was less than 50 nM; in experiment [3], 2010 to 5000 nM.
On to `CC(=O)NS(=O)(=O)c1ccc2c(c1)N(c1cccc3c1cc(C)c(=O)n3C)CCN2C` [Example 103, N-((4-(1,3-dimethyl-2-oxo-1,2-dihydroquinolin-5-yl)-1-methyl-1,2,3,4-tetrahydroquinoxalin-6-yl)sulfonyl)acetamide], for which, in experiment [2], the concentration for half-maximal inhibition (IC50) was greater than 10 nM. Moreover, in experiment [3], the inhibition at 10 µM was 36%.
Take `Cc1cc2c(N3CCN(C)c4cc(-c5cnn(C)c5)ncc43)cc(C(C)C)cc2n(C)c1=O` [Example 151, 7-Isopropyl-1,3-dimethyl-5-(1-methyl-7-(1-methyl-1H-pyrazol-4-yl)-2,3-dihydropyrido[3,4-b]pyrazin-4(1H)-yl)quinolin-2(1H)-one]: the 50% inhibitory concentration (IC50) in experiment [2] lay within 51 to 100 nM. Also, the inhibition at 10 µM in experiment [3] came out at 49%.
On to `COc1cc(N2CCN(C)c3cc(C4CC=NO4)c(S(N)(=O)=O)cc32)c2cc(C)c(=O)n(C)c2c1` (stereo not shown) [Example 91, 7-(4,5-Dihydroisoxazol-5-yl)-4-(7-methoxy-1,3-dimethyl-2-oxo-1,2-dihydroquinolin-5-yl)-1-methyl-1,2,3,4-tetrahydroquinoxaline-6-sulfonamide], for which the IC50 in experiment [2] was less than 50 nM; in experiment [3], 2010 to 5000 nM.
Take `CNC(=O)N1CCN(c2cc(OC)cc3c2cc(C)c(=O)n3C)c2cc(C#N)c(-c3cnn(C)c3)cc21` [Example 65, 6-Cyano-4-(7-methoxy-1,3-dimethyl-2-oxo-1,2-dihydroquinolin-5-yl)-N-methyl-7-(1-methyl-1H-pyrazol-4-yl)-3,4-dihydroquinoxaline-1(2H)-carboxamide]: the IC50 in experiment [2] is less than 50 nM; in experiment [3], 2010 to 5000 nM.
Take `CNC(=O)C1CCN(c2cc3c(cc2C#N)N(c2cc(OC)cc4c2cc(C)c(=O)n4C)CCN3C)CC1` [Example 26]: the half-maximal inhibitory concentration (IC50) in experiment [2] was less than 50 nM. Further, the inhibition at 10 µM in experiment [3] turned out to be 24%.
As for `CN1CCN(c2cccc3c2ccc(=O)n3C)c2cc(C#N)c(-c3cnn(C)c3)cc21` [Example 51], the inhibition at 10 µM in experiment [2] worked out at 99%. In addition, the IC50 in experiment [3] is 2010 to 5000 nM.

Broadly, the IC50 is the concentration needed to halve the response being measured. For orientation: inhibition means how much of the control response was suppressed.
